Reference: publication PMC4213485, “Relevant and selective activity of Pancratium illyricum L. against Candida albicans clinical isolates: a combined effect on yeast growth and virulence” (BMC Complementary and Alternative Medicine, 2014)

Target: T1, Clostridium hystolyticum collagenase (EC.3.4.23.3)
T1 construct: gene colH
Assay: FALGPA hydrolysis, absorbance at […] nm
Format: biochemical, Hathewaya histolytica
Conditions: FALGPA substrate (2 mM stock), 50 mM Tricine, 10 mM CaCl2, 400 mM NaCl, pH 7.5, 15 min preincubation

Question: `O=C(O[C@@H]1Cc2c(O)cc(O)cc2O[C@@H]1c1cc(O)c(O)c(O)c1)c1cc(O)c(O)c(O)c1` [EGCG] was tested. Which IC50 did it give?
Answer: 9.45 ± 0.5 µM
